How the values were obtained:
Alternaria solani = assay: Alternaria solani/Tomato/Preventive (action against Alternaria on tomato); assay type: in vivo; settings: 96 h, preventive spray, tomato plants cv. Roter Gnom, assessed after 4 days incubation, untreated controls infected over 80%, read-out: inhibit fungal infestation
Description: (§1) Alternaria solani/Tomato/Preventive (Action Against Alternaria on Tomato) 4 weeks old tomato plants cv. Roter Gnom are treated with the formulated test compound in a spray chamber. Two days after application tomato plants are inoculated by spraying a spore suspension on the test plants. After an incubation period of 4 days at 22° C./18° C. and 95% r.h. in a greenhouse the disease incidence is assessed.

Botrytis cinerea = assay: Botrytis cinerea/Tomato/Preventive (action against Botrytis on tomato); assay type: in vivo; settings: 72 h, preventive spray, tomato plants cv. Roter Gnom, assessed after 3 days incubation, untreated controls infected over 80%, read-out: inhibit fungal infestation
Description: as §1, with “Botrytis cinerea/Tomato/Preventive (Action” for “Alternaria solani/Tomato/Preventive (Action”, “Against Botrytis” for “Against Alternaria”, “of 3” for “of 4”, “at 20°” for “at 22° C./18°”, “95% r. h.” for “95% r.h.”

Puccinia recondite = assay: Puccinia recondite/Wheat/Preventive (action against brown rust on wheat); assay type: in vivo; settings: 264 h, preventive spray, wheat plants cv. Arina, assessed 11 days after inoculation, untreated controls infected over 80%, read-out: inhibits fungal infestation
Description: Puccinia recondite/Wheat/Preventive (Action Against Brown Rust on Wheat) 1 week old wheat plants cv. Arina are treated with the formulated test compound in a spray chamber. One day after application wheat plants are inoculated by spraying a spore suspension ([…] uredospores/ml) on the test plants. After an incubation period of 1 day at 20° C. and 95% r h. plants are kept for 10 days 20° C./18° C. (day/night) and 60% r.h. in a greenhouse. The disease incidence is assessed 11 days after inoculation.

[1] = test system: Magnaporthe arisea (Pyricularia oryzae); assay: whole plant or invertebrate; assay type: in vivo; settings: 144 h, read-out: inhibit fungal infestation
[2] = test system: Pyrenophora teres (Helminthosporium teres); assay: Pyrenophora teres (Helminthosporium teres)/Barley/Preventive (action against net blotch on barley); assay type: in vivo; settings: 96 h, preventive spray, barley plants cv. Regina, assessed after 4 days incubation, untreated controls infected over 80%, read-out: inhibit fungal infestation
Description: Pyrenophora teres (Helminthosporium teres)/Barley/Preventive (Action Against Net Blotch on Barley) 1-week-old barley plants cv. Regina are treated with the formulated test compound in a spray chamber. Two days after application barley plants are inoculated by spraying a spore suspension (2.6×10^4 conidia/ml) on the test plants. After an incubation period of 4 days at 20° C. and 95% r.h. the disease incidence is assessed.

Septoria tritici = assay: Septoria tritici/Wheat/Preventive (action against Septoria leaf spot on wheat); assay type: in vivo; settings: Zymoseptoria tritici, preventive spray, wheat plants cv. Riband, assessed 16-18 days after inoculation, untreated controls infected over 80%, read-out: inhibits fungal infestation
Description: Septoria tritici/Wheat/Preventive (Action Against Septoria Leaf Spot on Wheat) 2 weeks old wheat plants cv. Riband are treated with the formulated test compound in a spray chamber. One day after application wheat plants are inoculated by spraying a spore suspension (10^6 conidia/ml) on the test plants. After an incubation period of 1 day at 22° C./21° C. and 95% r.h. plants are kept at 22° C./21° C. and 70% r.h. in a greenhouse. The disease incidence is assessed 16-18 days after inoculation.

Uncinula necator = assay: Uncinula necator/Grape/Preventive (action against powdery mildew on grape); assay type: in vivo; settings: Erysiphe necator, 168 h, preventive spray, grape seedlings cv. Gutedel, assessed after 7 days incubation, untreated controls infected over 80%, read-out: inhibit fungal infestation
Description: Uncinula necator/Grape/Preventive (Action Against Powdery Mildew on Grape) 5 weeks old grape seedlings cv. Gutedel are treated with the formulated test compound in a spray chamber. One day after application grape plants are inoculated by shaking plants infected with grape powdery mildew above the test plants. After an incubation period of 7 days at 24° C./22° C. and 70% r.h. under a light regime of 14/10 h (light/dark) the disease incidence is assessed.

Row | Structure (SMILES) | inhibition at 200 ppm (Alternaria solani) [%] | inhibition at 200 ppm (Botrytis cinerea) [%] | inhibition at 200 ppm (Puccinia recondite) [%] | inhibition at 200 ppm [1] [%] | inhibition at 200 ppm [2] [%] | inhibition at 200 ppm (Septoria tritici) [%] | inhibition at 200 ppm (Uncinula necator) [%] | melting point [°C]
1 | COc1nnc(C)c(-c2cccs2)c1-c1c(F)cc(F)cc1F [I.h.199, 3-methoxy-6-methyl-5-thiophen-2-yl-4-(2,4,6-trifluorophenyl)-pyridazine] | ≥ 80 | ≥ 80 | ≥ 80 | ≥ 80 | ≥ 80 | ≥ 80 | ≥ 80 | 124 to 125
2 | COc1cc(F)c(-c2c(OC)nnc(C)c2-c2cccs2)c(F)c1 [I.h.254, 4-(2,6-difluoro-4-methoxyphenyl)-3-methoxy-6-methyl-5-thiophen-2-yl-pyridazine] | – | – | – | – | – | – | – | 130 to 133
3 | Cc1nnc(Cl)c(-c2c(F)cc(F)cc2F)c1-c1cccs1 [I.h.198, 3-chloro-6-methyl-5-thiophen-2-yl-4-(2,4,6-trifluorophenyl)-pyridazine] | ≥ 80 | ≥ 80 | ≥ 80 | ≥ 80 | ≥ 80 | ≥ 80 | ≥ 80 | 90 to 92
4 | Cc1nnc(F)c(-c2c(F)cc(F)cc2F)c1-c1cccs1 [I.h.197, 3-fluoro-6-methyl-5-thiophen-2-yl-4-(2,4,6-trifluorophenyl)-pyridazine] | ≥ 80 | ≥ 80 | ≥ 80 | ≥ 80 | ≥ 80 | ≥ 80 | – | 71 to 74
5 | Cc1nnc(C)c(-c2c(F)cc(F)cc2F)c1-c1cccs1 [I.h.200, 3,6-dimethyl-4-thiophen-2-yl-5-(2,4,6-trifluorophenyl)-pyridazine] | ≥ 80 | ≥ 80 | ≥ 80 | ≥ 80 | ≥ 80 | ≥ 80 | ≥ 80 | 100 to 102
6 | Cc1n[nH]c(=O)c(-c2c(F)cc(F)cc2F)c1-c1cccs1 [I.h.196, 6-methyl-5-thiophen-2-yl-4-(2,4,6-trifluorophenyl)-2H-pyridazin-3-one] | – | – | – | – | – | – | – | 249 to 251

Reference: US20100113464A1, “NOVEL PYRIDAZINE DERIVATIVES” (SYNGENTA CROP PROTECTION, INC., priority 2006, published 2010)
